One assay deals with Prothrombin (Homo sapiens, UniProt P00734).
The target in a further assay is Coagulation factor X (Homo sapiens, UniProt P00742). Put plainly: Inhibitory activity against Coagulation factor Xa.

Ki data for 3 compounds are collected here from ChEMBL document CHEMBL1132353, “New 4-point pharmacophore method for molecular similarity and diversity applications: overview of the method and applications, including a novel approach to the design of combinatorial libraries containing privileged substructures” (J Med Chem, 1999).

Chain of Coagulation factor X (P00742 41-179 limits assumed): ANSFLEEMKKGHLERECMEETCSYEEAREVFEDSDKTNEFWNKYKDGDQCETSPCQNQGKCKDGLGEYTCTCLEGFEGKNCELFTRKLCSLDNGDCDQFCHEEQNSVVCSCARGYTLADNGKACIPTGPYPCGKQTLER
Chain of Coagulation factor X (P00742 235-488 limits assumed): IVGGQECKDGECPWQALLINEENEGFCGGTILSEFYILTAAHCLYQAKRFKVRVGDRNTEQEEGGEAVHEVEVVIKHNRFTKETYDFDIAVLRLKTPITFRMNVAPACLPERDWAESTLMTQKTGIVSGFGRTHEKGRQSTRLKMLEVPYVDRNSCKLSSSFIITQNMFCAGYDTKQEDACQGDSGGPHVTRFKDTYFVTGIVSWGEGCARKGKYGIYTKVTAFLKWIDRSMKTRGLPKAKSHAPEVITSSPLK
Description for Prothrombin: Inhibitory activity against thrombin

In turn, `O=S(=O)(Nc1cccc(OCCNc2ccncc2)c1)c1ccccc1` displayed a Ki on Prothrombin of 23 nM.

In turn, `CC(=N)N1CCC(Oc2ccc(C(Cc3ccc4ccc(C(=N)N)cc4c3)C(=O)O)cc2)CC1` (stereo not drawn) came in with a Ki on Coagulation factor X of 13 nM.

Compound `C[C@H]1CNc2cc(S(=O)(=O)N[C@H](CCCNC(=N)N)C(=O)N3CCCCC3C(=O)O)ccc2C1` (stereo partly drawn) displayed a Ki on Prothrombin of 19 nM.
